In US12421276B2 (priority 2016, dated 2025):
Where “and” joins values, the source holds several entries; their conditions need not be identical. Equal values may be shown once. Read-outs that look alike come from different tables or passages of the source. Blank lines part the entries; values can stand above or below the compound they belong to. Where a SMILES comes first, the peptide text is derived from it. [ ]: non-standard residue; d: D form. The star is where a group is joined. Hexanoyl = CCCCCC(=O)*; Ahx = NCCCCCC(=O)O

Experiments:
[1] = Plasma stability study, human plasma; type: in vitro ADME
Experimental: (§1) Human and rat plasma (K2 EDTA) were obtained from Bioreclamation.
(§2) Compounds were dissolved as 0.3 mM DMSO stocks. Compounds were transferred to the plasma at 1 μM on a 96-well deep well plate. After mixing, samples were transferred to several 96-well plates (25 μL/well), and incubated at 37° C. The extent of metabolism was calculated as the disappearance of the test compound, compared to the 0-min control reaction incubations. Propantheline was included as a positive control to verify assay performance.
(§3) At each of the time points, 150 μL of quench solution (50% acetonitrile, 50% methanol with 0.05% formic acid) with internal standard (bucetin for positive ESI mode and warfarin for negative ESI mode) was transferred to each well. Plates were sealed and centrifuged at 4° C. for 15 minutes at 4000 rpm. The supernatant was transferred to fresh plates for LC/MS/MS analysis.
(§4) Elution conditions are detailed in the table below.
(§5) Initial rates of the clearance of test compounds were calculated using linear regression of semi-log plot of % remaining of compounds versus time. The elimination rate constant (equals to −slope) of the linear regression was then used to determine t½ values.

[2] = Plasma stability study, rat plasma; type: in vitro ADME
Experimental: as §1, §2, §3, §4, §5

[3] = Metabolic stability in simulated intestinal fluid (SIF), pH 6.8, with or without pancreatin; type: in vitro ADME
Experimental: (§6) Metabolic Stability in SIF and SGF (Simulated Intestinal and Gastric Fluid)
Buffer 3=SIF without enzyme
Buffer 4=SIF with 1% pancreatin
(§7) SIF was prepared freshly with 8.7 mM NaOH, 28.65 mM NaH2PO4, 105.85 mM NaCl, with a final pH of 6.8. SGF was prepared freshly with 34.2 mM NaCl, with a final pH of 1.2. Enzymes such as pepsin or pancreatin were added to some buffers. Human and rat plasma (K2 EDTA) were purchased from BioreclamationIVT.
(§8) Compounds were dissolved as 1.5 mM DMSO stocks. Compounds were transferred to SIF, SGF, or plasma at 5 μM on a 96-well deep well plate. After mixing, samples were transferred to several 96-well plates (25 μL/well), and incubated at 37° C. The extent of metabolism was calculated as the disappearance of the test compound, compared to the 0-min control reaction incubations. Candesartan Cilexetil and omeprazole were included as positive controls for SIF and SGF, respectively, to verify assay performance.
as §3, with “(100% acetonitrile” for “(50% acetonitrile, 50% methanol”, “0.1%” for “0.05%”
as §4, §5

[4] = Metabolic stability in simulated gastric fluid (SGF), pH 1.2, with or without pepsin; type: in vitro ADME
Experimental: as §6
Buffer 1=SGF without enzyme
Buffer 2=SGF with 0.32% pepsin
as §7, §8
as §3, with “(100% acetonitrile” for “(50% acetonitrile, 50% methanol”, “0.1%” for “0.05%”
as §4, §5

[5] = type: in vivo, rat
Experimental: • 1. Eight (8) male JVC SD rats (purchased from Charles River Lab) were monitored daily for body condition and health status during the 3-5 days acclimation period. The rats were randomly assigned into […] (n=4). • 2. […] The dosed rats were individually placed into a metabolic cage, and have access to food and water at all times. The urine from each rat was collected daily from the metabolic cages, and kept in dry ice. • 4. At predose (0 min), 5 min, 15 min, 30 min, 1 hr, 2 hr, 8 hr, and 24 hr post dosing, approximately 200 ul blood samples were collected from each rat and transferred to EDTA tubes. • 5. The blood samples in EDTA vials were centrifuged at 4° C. and 6,000 rpm for 10 minutes to generate ˜100 μl of plasma per sample. Blood samples were processed as quickly as possible and remain no longer than 2 min at room temperature and no longer than 15 minutes at 4° C. prior to processing. • 6. All samples were transferred for bioanalytic assay using LCMS

Caco-2 cells = experiment: Caco-2 permeability study with or without P-gp inhibitor GF120918; settings: for Abs. Quotient: (Papp A-B with inhibitor − without inhibitor)/Papp A-B with inhibitor; for Caco-2 Cells Permeability Recovery Rate: 1 hr, pH 7.4
Experimental: Buffer=HBSS, pH 7.4 with 5 mM HEPES
Caco-2 cell plates were obtained commercially and were maintained for 21 days at 37° C. with 5% CO2. Cells were washed with Hank's Balanced Salt Solution (HBSS) 30 min before starting the experiment. Test compound solutions were prepared by diluting from DMSO stock into HBSS buffer in the presence or absence of 10 μM of P-gp inhibitor GF120918. The final DMSO concentration is 0.2%. Prior to each experiment, cell monolayer integrity was verified by transendothelial electrical resistance (TEER). Transport experiment was initiated by adding test compounds to the apical (75 μL) side. Transport plates were incubated at 37° C. in a humidified incubator with 5% CO2. Samples were taken from the donor and acceptor compartments after 1 hr and analyzed by liquid chromatography with tandem mass spectrometry (LC/MS/MS).
Apparent permeability (Papp) values were calculated using the following equation: Papp=(dQ/dt)/A/C0
where dQ/dt is the initial rate of amount of test compound transported across cell monolayer, A is the surface area of the filter membrane, and C0 is the initial concentration of the test compound. C0 is calculated for each condition using a 4-point calibration curve.
Absorption quotient between the two assay conditions was calculated by the following equation:
Absorption quotient (AQ)=(Papp, A-B with inhibitor−Papp, A-B without inhibitor)/Papp, A-B with inhibitor where Papp, A-B with inhibitor and Papp, A-B without inhibitor represent the apparent permeability of test compound from the apical to basal side of the cellular monolayer in the presence and absence of 10 μM P-gp inhibitor GF120918, respectively.
All samples were analyzed on LC/MS/MS using an AB Sciex API 4000 instrument, coupled to a Shimadzu LC-20AD LC Pump system. Analytical samples were separated using a Waters Atlantis T3 dC18 reverse phase HPLC column (10 mm×2.1 mm) at a flow rate of 0.5 mL/min. The mobile phase consisted of 0.1% formic acid in water (solvent A) and 0.1% formic acid in acetonitrile (solvent B).

[6] = Rat, PO, 10 mg/kg equiv., n = 4, analyte: Parent (BASE STRUCTURE)
[7] = rat, dosed as Base Structure 20 mg/kg, analyte Parent (Base Structure), Average
[8] = rat, dosed as Base Structure 20 mg/kg, analyte Parent (Base Structure), Combined (average ± std. dev.)
[9] = rat, dosed as Base Structure 20 mg/kg, analyte Parent (Base Structure), individual animals
[10] = +GF120918 (10 μM), 10 μM compound

Compound: CCCCCC(=O)N[C@@H](Cc1ccc(O)cc1)C(=O)N[C@H](C(=O)NCCCCCC(N)=O)[C@@H](C)CC [Base Structure, N-hexanoic-L-tyrosine-L-isoleucine-(6)-aminohexanoic amide, reference compound] (Hexanoyl-Tyr-Ile-[Ahx]-NH2)
Plasma Stability Half-Life ([1]; Human plasma, 1 μM, 37° C.): 12558.0 min | Plasma Stability (% Parent Remaining) 0 min ([1]; Human plasma, 1 μM, 37° C., 0 min): 100% | Plasma Stability (% Parent Remaining) 60 min ([1]; Human plasma, 1 μM, 37° C., 60 min): 98% | Plasma Stability (% Parent Remaining) 120 min ([1]; Human plasma, 1 μM, 37° C., 120 min): 102% | Plasma Stability (% Parent Remaining) 240 min ([1]; Human plasma, 1 μM, 37° C., 240 min): 98% | Plasma Stability Half-Life ([2]; Rat plasma, 1 μM, 37° C.): 1095.1 min | Plasma Stability (% Parent Remaining) 0 min ([2]; Rat plasma, 1 μM, 37° C., 0 min): 100% | Plasma Stability (% Parent Remaining) 60 min ([2]; Rat plasma, 1 μM, 37° C., 60 min): 87% | Plasma Stability (% Parent Remaining) 120 min ([2]; Rat plasma, 1 μM, 37° C., 120 min): 89% | Plasma Stability (% Parent Remaining) 240 min ([2]; Rat plasma, 1 μM, 37° C., 240 min): 83% | SIF Stability (pH 6.8) Half-Life (min) ([3]; −Pancreatin, 5 μM, 37° C.): Neg. | SIF Stability (pH 6.8) 0 min ([3]; −Pancreatin, 5 μM, 37° C., 0 min): 100% | SIF Stability (pH 6.8) 60 min ([3]; −Pancreatin, 5 μM, 37° C., 60 min): 119% | SIF Stability (pH 6.8) 240 min ([3]; −Pancreatin, 5 μM, 37° C., 240 min): 113% | SGF Stability (pH 1.2) Half-Life (min) ([4]; +Pepsin (0.32%), 5 μM, 37° C.): 26.0 min | SGF Stability (pH 1.2) 0 min ([4]; +Pepsin (0.32%), 5 μM, 37° C.): 100% | SGF Stability (pH 1.2) 60 min ([4]; +Pepsin (0.32%), 5 μM, 37° C.): 13% | SGF Stability (pH 1.2) 240 min ([4]; +Pepsin (0.32%), 5 μM, 37° C.): 0.2% | SGF Stability (pH 1.2) Half-Life (min) ([4]; −Pepsin, 5 μM, 37° C.): Neg. | SGF Stability (pH 1.2) 0 min ([4]; −Pepsin, 5 μM, 37° C.): 100% | SGF Stability (pH 1.2) 60 min ([4]; −Pepsin, 5 μM, 37° C.): 127% | SGF Stability (pH 1.2) 240 min ([4]; −Pepsin, 5 μM, 37° C.): 122% | AUC0-24 [5, 6]: 0.4 ± 0.2 ng·h/mL | Cmax [5, 6]: 0.9 ± 0.5 ng/mL | Tmax [5, 6]: 24 ± 30 min | AUC 0-t [5, 7]: 0.4468 ng·h/mL | Cmax [5, 7]: 0.9267 ng/mL | Tlag [5, 7]: 0 h | Tmax [5, 7]: 26.6 min | AUC 0-t [5, 8]: 0.4 ± 0.2 ng·h/mL | Cmax [5, 8]: 0.9 ± 0.5 ng/mL | Tlag [5, 8]: 0 ± 0 h | Tmax [5, 8]: 24 ± 30 min | AUC 0-t [5, 9]: 0.6164 ng·h/mL and 0.5175 ng·h/mL and 0.2066 ng·h/mL | Cmax [5, 9]: 0.689 ng/mL and 1.54 ng/mL and 0.551 ng/mL | Tlag [5, 9]: 0 h | Tmax [5, 9]: 4.8 min and 15 min and 60 min | Abs. Quotient (Caco-2 cells): 0.84 and 0.82 | Caco-2 Cells Permeability Recovery Rate (Caco-2 cells; [10]): 83% and 96% | Caco-2 Cells Permeability Recovery Rate (Caco-2 cells; −GF120918, 10 μM compound): 87% and 91%

Plasma Stability Half-Life ([1]; human, plasma): 10.1 min | Plasma Stability Half-Life ([2]; rat, plasma): 8.2 min | SIF Stability (pH 6.8) Half-Life (min) ([3]; simulated gi fluid, pH 6.8): 34.7 min | SGF Stability (pH 1.2) Half-Life (min) ([4]; simulated gi fluid, pH 1.2): 389.4 min | Abs. Quotient (Caco-2 cells): 0.77 | Caco-2 Cells Permeability Recovery Rate (Caco-2 cells; [10]): 83% | Caco-2 Cells Permeability Recovery Rate (Caco-2 cells; −GF120918, 10 μM compound): 91%
Compound: CCCCCC(=O)NC(Cc1ccc(OC(=O)CN(C)C)cc1)C(=O)NC(C(=O)NCCCCCC(N)=O)C(C)CC (stereo not shown) [Compound A25]

Plasma Stability Half-Life ([1]; human, plasma): 7.3 min | Plasma Stability Half-Life ([2]; rat, plasma): 64.2 min | Abs. Quotient (Caco-2 cells): 0.88 | Caco-2 Cells Permeability Recovery Rate (Caco-2 cells; [10]): 72% | Caco-2 Cells Permeability Recovery Rate (Caco-2 cells; −GF120918, 10 μM compound): 72%
Compound: CCCCCC(=O)NC(Cc1ccc(OC(=O)CN2CCCC2)cc1)C(=O)NC(C(=O)NCCCCCC(N)=O)C(C)CC (stereo not shown) [Compound A24]
